Measured values from patent US11834453B2, “Substituted pyrimido[5,4-d]pyrimidines as HER2 inhibitors” (Array BioPharma Inc., priority 2020, dated 2023).

Columns and labels:
[1] = molecular target: ErbB2 with Exon 20 YVMA insertion (HER2-YVMA) (Homo sapiens (Human), UniProt P04626, INS775YVMA); assay: Cellular phosphorylation assay, constitutive ErbB2 phosphorylation (Y1196) in engineered NIH 3T3 cells, Assay 4; assay type: cell-based
How it was run: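 Engineered NIH 3T3 cells expressing HER2-YVMA treated with compounds 1 h at 37 °C, then formaldehyde-fixed and methanol-permeabilized. pErbB2 Y1196 detected by in-cell infrared immunofluorescence, normalized to GAPDH. IC50 from the normalized curves.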

EGFR wild type (EGFR WT) = EGFR wild type (EGFR WT) (Homo sapiens (Human), UniProt P00533); assay: Cellular phosphorylation assay, EGF-stimulated EGFR phosphorylation in engineered NIH 3T3 cells, Phospho-EGFR DuoSet IC ELISA, Assay 5; assay type: cell-based
Chain of EGFR wild type (EGFR WT) (P00533 25-1210): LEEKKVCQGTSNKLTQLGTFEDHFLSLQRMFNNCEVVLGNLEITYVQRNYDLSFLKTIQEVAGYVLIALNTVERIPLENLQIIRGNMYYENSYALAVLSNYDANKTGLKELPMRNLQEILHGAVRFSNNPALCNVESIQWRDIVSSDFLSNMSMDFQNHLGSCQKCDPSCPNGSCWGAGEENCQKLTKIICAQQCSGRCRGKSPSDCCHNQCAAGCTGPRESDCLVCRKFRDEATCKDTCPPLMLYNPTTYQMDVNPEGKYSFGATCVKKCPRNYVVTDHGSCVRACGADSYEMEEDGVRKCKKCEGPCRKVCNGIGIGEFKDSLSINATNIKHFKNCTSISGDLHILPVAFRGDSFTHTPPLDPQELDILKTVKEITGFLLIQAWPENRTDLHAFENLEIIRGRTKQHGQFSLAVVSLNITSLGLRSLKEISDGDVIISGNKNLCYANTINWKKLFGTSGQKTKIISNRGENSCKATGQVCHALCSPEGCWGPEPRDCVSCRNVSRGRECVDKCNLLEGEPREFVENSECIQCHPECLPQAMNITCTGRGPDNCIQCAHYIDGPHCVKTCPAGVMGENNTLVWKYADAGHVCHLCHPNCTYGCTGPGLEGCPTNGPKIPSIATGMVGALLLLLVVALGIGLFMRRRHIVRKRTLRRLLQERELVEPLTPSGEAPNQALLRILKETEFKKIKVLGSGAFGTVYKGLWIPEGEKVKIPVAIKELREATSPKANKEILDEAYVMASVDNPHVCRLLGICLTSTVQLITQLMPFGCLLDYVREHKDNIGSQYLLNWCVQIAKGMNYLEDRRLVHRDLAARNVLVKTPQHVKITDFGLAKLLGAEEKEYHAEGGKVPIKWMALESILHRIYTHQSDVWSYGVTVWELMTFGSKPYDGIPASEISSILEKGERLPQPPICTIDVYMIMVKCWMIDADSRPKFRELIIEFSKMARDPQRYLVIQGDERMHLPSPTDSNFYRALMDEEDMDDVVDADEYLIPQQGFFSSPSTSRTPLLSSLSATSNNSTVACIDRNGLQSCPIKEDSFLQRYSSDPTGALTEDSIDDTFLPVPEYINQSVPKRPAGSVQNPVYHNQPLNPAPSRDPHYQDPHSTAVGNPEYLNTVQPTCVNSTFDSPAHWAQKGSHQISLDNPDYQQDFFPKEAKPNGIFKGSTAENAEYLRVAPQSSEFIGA
How it was run: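 NIH 3T3 cells expressing EGFR WT (20,000/well, attached overnight) were exposed to serially diluted compound for 1 h at 37 °C, then stimulated with 100 ng/ml rEGF for 10 min. Phospho-EGFR in lysates measured by sandwich ELISA optical density; IC50 from curves.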

[2] = molecular target: ErbB2 insYVMA (HER2-YVMA, SEQ ID NO: 2) (Homo sapiens, UniProt P04626, INS775YVMA/P1170A); assay: biochemical; conditions: ErbB2 insYVMA enzyme assay; read-out: Assay 1 IC50
Chain of ErbB2 insYVMA (HER2-YVMA, SEQ ID NO: 2) (P04626 with tags, fused parts or gaps INS775YVMA/P1170A limits assumed): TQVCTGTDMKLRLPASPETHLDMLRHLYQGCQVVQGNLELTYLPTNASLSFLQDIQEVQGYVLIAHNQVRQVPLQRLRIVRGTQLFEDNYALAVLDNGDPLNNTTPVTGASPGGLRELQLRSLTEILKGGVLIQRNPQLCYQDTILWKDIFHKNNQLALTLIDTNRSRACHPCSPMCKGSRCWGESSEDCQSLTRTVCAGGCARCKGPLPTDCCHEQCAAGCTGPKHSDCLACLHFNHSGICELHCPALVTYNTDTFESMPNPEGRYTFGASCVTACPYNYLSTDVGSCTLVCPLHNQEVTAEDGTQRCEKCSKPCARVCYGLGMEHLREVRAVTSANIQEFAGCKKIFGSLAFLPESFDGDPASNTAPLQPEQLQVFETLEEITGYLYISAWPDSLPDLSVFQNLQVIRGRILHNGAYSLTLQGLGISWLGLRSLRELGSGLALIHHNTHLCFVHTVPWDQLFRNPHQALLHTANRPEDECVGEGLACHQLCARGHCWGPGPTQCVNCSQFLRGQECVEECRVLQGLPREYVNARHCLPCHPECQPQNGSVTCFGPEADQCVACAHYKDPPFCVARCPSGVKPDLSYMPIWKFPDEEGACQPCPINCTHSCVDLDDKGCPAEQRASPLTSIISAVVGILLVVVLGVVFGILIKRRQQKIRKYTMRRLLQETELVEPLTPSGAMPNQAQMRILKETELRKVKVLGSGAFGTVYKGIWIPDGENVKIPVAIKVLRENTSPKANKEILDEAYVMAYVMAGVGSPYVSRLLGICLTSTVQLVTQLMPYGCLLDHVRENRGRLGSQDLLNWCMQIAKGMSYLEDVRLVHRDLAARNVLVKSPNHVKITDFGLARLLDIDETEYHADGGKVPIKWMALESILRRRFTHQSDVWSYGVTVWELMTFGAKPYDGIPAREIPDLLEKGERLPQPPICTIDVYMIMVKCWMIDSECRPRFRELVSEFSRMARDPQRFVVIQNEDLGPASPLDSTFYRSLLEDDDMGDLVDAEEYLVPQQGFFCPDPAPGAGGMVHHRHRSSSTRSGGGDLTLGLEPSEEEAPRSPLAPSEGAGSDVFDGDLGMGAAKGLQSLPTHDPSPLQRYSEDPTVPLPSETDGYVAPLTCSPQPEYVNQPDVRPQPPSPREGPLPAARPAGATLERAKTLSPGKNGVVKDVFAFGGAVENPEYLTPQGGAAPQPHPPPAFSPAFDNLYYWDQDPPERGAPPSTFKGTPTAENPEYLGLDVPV

ErbB2 WT = ErbB2 WT (Homo sapiens (Human), UniProt P04626); assay: ErbB enzyme assay (CisBio HTRF KinEASE-TK), Assay 2; assay type: biochemical
How it was run: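 ErbB2 phosphorylates 250 nM biotin-TK substrate at 1 mM ATP in 25 mM HEPES pH 7.4, 10 mM MgCl2, 0.01% Triton X-100 and 2% DMSO, for 30 min at 22 °C. Product is detected by HTRF with Sa-XL665 and TK-Ab-Cryptate. Percent of control is set by DMSO-only wells and pre-quenched wells.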

BCRP = BCRP (Homo sapiens (Human), UniProt Q9UNQ0); assay: BCRP transfected MDCKII canine Mdr1 knockout permeability/efflux, Assay 9; conditions: dog
EGFR = EGFR (Homo sapiens (Human), UniProt P00533); assay: ErbB enzyme assay (CisBio HTRF KinEASE-TK), Assay 3; assay type: biochemical
Chain of EGFR (P00533 25-1210): as the sequence (P00533 25-1210) above
How it was run: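 Kinase + 250 nM biotin TK-substrate, 1 mM ATP, cpd (3-fold dil.), HEPES pH 7.4/10 mM MgCl2/0.01% Triton/2% DMSO; 30 min 22 °C. Quench w/ Sa-XL665 + TK-Ab-Cryptate, 1 h, HTRF. IC50 = 50 POC on 4PL fit.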

MDR1 (P-gp) = MDR1 (P-gp) (Homo sapiens (Human), UniProt P08183); assay: MDR1 transfected MDCKII canine Mdr1 knockout permeability/efflux, Assay 7; conditions: dog, MDCK-MDR1
Chain of MDR1 (P-gp) (P08183 whole entry): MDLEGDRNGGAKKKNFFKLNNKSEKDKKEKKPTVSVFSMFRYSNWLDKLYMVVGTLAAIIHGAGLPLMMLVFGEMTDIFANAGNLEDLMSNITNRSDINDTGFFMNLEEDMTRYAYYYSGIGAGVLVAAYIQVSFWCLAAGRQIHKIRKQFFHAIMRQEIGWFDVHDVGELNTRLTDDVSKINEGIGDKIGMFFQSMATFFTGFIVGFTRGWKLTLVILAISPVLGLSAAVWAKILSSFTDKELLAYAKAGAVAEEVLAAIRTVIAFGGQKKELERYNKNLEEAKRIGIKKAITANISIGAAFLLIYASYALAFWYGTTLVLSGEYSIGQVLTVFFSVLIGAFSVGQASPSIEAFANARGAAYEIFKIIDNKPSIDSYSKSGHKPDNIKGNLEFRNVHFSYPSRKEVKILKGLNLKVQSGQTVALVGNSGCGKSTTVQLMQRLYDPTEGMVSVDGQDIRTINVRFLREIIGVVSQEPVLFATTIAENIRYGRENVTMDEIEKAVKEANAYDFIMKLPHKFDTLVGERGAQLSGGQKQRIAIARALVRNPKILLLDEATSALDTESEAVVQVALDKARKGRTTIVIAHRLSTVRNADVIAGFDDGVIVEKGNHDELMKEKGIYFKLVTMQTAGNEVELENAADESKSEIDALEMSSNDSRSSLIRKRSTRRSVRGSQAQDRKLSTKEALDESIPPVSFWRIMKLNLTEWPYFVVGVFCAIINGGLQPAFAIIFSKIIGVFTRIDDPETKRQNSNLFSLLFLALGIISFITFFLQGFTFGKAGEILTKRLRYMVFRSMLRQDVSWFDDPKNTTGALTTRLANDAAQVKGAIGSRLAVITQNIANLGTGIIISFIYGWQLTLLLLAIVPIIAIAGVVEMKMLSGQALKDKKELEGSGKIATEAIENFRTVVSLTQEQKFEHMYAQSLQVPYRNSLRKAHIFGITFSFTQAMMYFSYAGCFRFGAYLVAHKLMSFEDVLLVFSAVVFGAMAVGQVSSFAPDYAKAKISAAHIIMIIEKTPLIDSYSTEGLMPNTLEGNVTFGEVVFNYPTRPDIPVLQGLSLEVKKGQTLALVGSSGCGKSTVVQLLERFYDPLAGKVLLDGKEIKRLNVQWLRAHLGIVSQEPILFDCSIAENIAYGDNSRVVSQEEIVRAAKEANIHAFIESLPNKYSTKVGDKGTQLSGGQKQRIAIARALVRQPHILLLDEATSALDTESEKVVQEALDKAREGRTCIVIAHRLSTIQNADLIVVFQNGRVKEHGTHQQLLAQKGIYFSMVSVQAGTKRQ

[3] = Assay 9 Pe Ratio, efflux ratio Papp(B-A)/Papp(A-B), BCRP transfected MDCKII canine Mdr1 knockout

SMILES	IC50 [1] [µM]	IC50 (EGFR wild type (EGFR WT)) [µM]	IC50 [2] [µM]	IC50 (ErbB2 WT) [µM]	efflux ratio at 2 h, 1 μM (BCRP; [3])	IC50 (EGFR) [µM]	efflux ratio at 2 h, 1 μM (MDR1 (P-gp))	efflux ratio at 2 h, 1 μM (BCRP)
Cc1cc(Nc2ncnc3cnc(N4C[C@@H](O)C(F)(F)C4)nc23)ccc1Oc1ccc2c(c1)ncn2C [Example 185, (R)-4,4-difluoro-1-(8-((3-methyl-4-((1-methyl-1H-benzo[d]imidazol-5-yl)oxy)phenyl)amino)pyrimido[5,4-d]pyrimidin-2-yl)pyrrolidin-3-ol]	0.0252	≥ 5	0.0243	0.0121	31.7	≥ 10	2	–
Cc1cc(Nc2ncnc3cnc(N(C)[C@H]4CCC[C@@H]4O)nc23)ccc1Oc1ccc2c(c1)ncn2C [Example 176, (1S,2S)-2-(methyl(8-((3-methyl-4-((1-methyl-1H-benzo[d]imidazol-5-yl)oxy)phenyl)amino)pyrimido[5,4-d]pyrimidin-2-yl)amino)cyclopentan-1-ol]	0.0254	≥ 5	0.0322	0.0308	13.5	1.25	1.4	–
Cc1cc(Nc2ncnc3cnc(N4CCC5COCC54)nc23)ccc1Oc1ccc2c(c1)ncn2C (centres unmarked) [Example 129, 6-(hexahydro-1H-furo[3,4-b]pyrrol-1-yl)-N-(3-methyl-4-((1-methyl-1H-benzo[d]imidazol-5-yl)oxy)phenyl)pyrimido[5,4-d]pyrimidin-4-amine]	0.0076	≥ 5	0.0124	0.015	1.7	0.865	1.4	–
Cc1cc(Nc2ncnc3cnc(N4CCC(C)(O)CC4)nc23)ccc1Oc1ccn2ncnc2c1 [Example 120, 1-(8-((4-([1,2,4]triazolo[1,5-a]pyridin-7-yloxy)-3-methylphenyl)amino)pyrimido[5,4-d]pyrimidin-2-yl)-4-methylpiperidin-4-ol]	0.0494	≥ 5	0.0206	0.019	7.8	5.34	1.3	–
Cc1cc(Nc2ncnc3cnc(N(C)[C@H]4CCOC4)nc23)ccc1Oc1ccc2c(c1)ncn2C [Example 131, (S)—N2-methyl-N8-(3-methyl-4-((1-methyl-1H-benzo[d]imidazol-5-yl)oxy)phenyl)-N2-(tetrahydrofuran-3-yl)pyrimido[5,4-d]pyrimidine-2,8-diamine]	0.0363	≥ 5	0.021	0.02	1.4	3.27	1.6	–
Cc1c(Oc2ccn3ncnc3c2)ccc(Nc2ncnc3cnc(N4CCC(C)(O)CC4)nc23)c1F [Example 304]	0.114	≥ 5	0.0117	0.0486	7.3	2.84	1.2	–
Cc1cc(Nc2ncnc3cnc(N(C)[C@H]4C[C@](C)(O)C4)nc23)ccc1Oc1ccc2c(c1)ncn2C [Example 171, (1r,3r)-1-methyl-3-(methyl(8-((3-methyl-4-((1-methyl-1H-benzo[d]imidazol-5-yl)oxy)phenyl)amino)pyrimido[5,4-d]pyrimidin-2-yl)amino)cyclobutan-1-ol]	0.0071	≥ 5	0.0135	0.0059	8.6	0.472	1.9	–
Cc1cc(Nc2ncnc3cnc(N4CCN5CCOC[C@H]5C4)nc23)ccc1Oc1ccc2c(c1)ncn2C [Example 180, (R)-6-(hexahydropyrazino[2,1-c][1,4]oxazin-8(1H)-yl)-N-(3-methyl-4-((1-methyl-1H-benzo[d]imidazol-5-yl)oxy)phenyl)pyrimido[5,4-d]pyrimidin-4-amine]	0.0154	≥ 5	0.0132	0.0209	2.7	4.59	1.3	–
Cc1cc(Nc2ncnc3cnc(N4CCN[C@@H](C(F)(F)F)C4)nc23)ccc1Oc1ccc2c(c1)ncn2C [Example 182, (R)—N-(3-methyl-4-((1-methyl-1H-benzo[d]imidazol-5-yl)oxy)phenyl)-6-(3-(trifluoromethyl)piperazin-1-yl)pyrimido[5,4-d]pyrimidin-4-amine]	0.0177	≥ 5	0.0295	0.0347	1.9	3.13	1.3	–
Cc1cc(Nc2ncnc3cnc(N4CCN5CCOC[C@@H]5C4)nc23)ccc1Oc1ccc2c(c1)ncn2C [Example 190, (S)-6-(hexahydropyrazino[2,1-c][1,4]oxazin-8(1H)-yl)-N-(3-methyl-4-((1-methyl-1H-benzo[d]imidazol-5-yl)oxy)phenyl)pyrimido[5,4-d]pyrimidin-4-amine]	0.0141	≥ 5	0.0215	0.035	4.7	8.14	1.3	–
Cc1cc(Nc2ncnc3cnc(N(C)CC4COC4)nc23)ccc1Oc1ccc2c(c1)ncn2C [Example 402]	0.0149	≥ 5	0.0397	0.0149	2.3	≥ 10	1.4	–
CO[C@@H]1CN(c2ncc3ncnc(Nc4ccc(Oc5ccc6c(c5)ncn6C)c(C)c4)c3n2)C[C@@H]1O [Example 194, (3S,4R)-4-methoxy-1-(8-((3-methyl-4-((1-methyl-1H-benzo[d]imidazol-5-yl)oxy)phenyl)amino)pyrimido[5,4-d]pyrimidin-2-yl)pyrrolidin-3-ol]	0.0445	≥ 5	0.0178	0.0235	32.4	8.73	1.9	–
COC[C@H](O)CN(C)c1ncc2ncnc(Nc3ccc(Oc4ccc5c(c4)ncn5C)c(C)c3)c2n1 (racemic) [Example 100, rac-(R)-1-methoxy-3-(methyl(8-((3-methyl-4-((1-methyl-1H-benzo[d]imidazol-5-yl)oxy)phenyl)amino)pyrimido[5,4-d]pyrimidin-2-yl)amino)propan-2-ol]	0.0211	≥ 5	0.0288	0.0318	18.2	4.15	1.5	–
Cc1cc(Nc2ncnc3cnc(N4CCC(O)(C(F)F)CC4)nc23)ccc1Oc1ccc2c(c1)ncn2C [Example 168, 4-(difluoromethyl)-1-(8-((3-methyl-4-((1-methyl-1H-benzo[d]imidazol-5-yl)oxy)phenyl)amino)pyrimido[5,4-d]pyrimidin-2-yl)piperidin-4-ol]	0.0065	≥ 5	0.0391	0.113	16.7	3.68	2	–
Clc1cc(Nc2ncnc3cnc(N4CCC45COC5)nc23)ccc1Oc1ccn2ncnc2c1 [Example 132, N-(4-([1,2,4]triazolo[1,5-a]pyridin-7-yloxy)-3-chlorophenyl)-6-(6-oxa-1-azaspiro[3.3]heptan-1-yl)pyrimido[5,4-d]pyrimidin-4-amine]	0.0199	≥ 5	0.0058	0.0056	–	0.801	1.1	1.8
Cc1c(Oc2ccc3c(c2)ncn3C)ccc(Nc2ncnc3cnc(N4CCC[C@](C)(O)C4)nc23)c1F [Example 147, (S)-1-(8-((2-fluoro-3-methyl-4-((1-methyl-1H-benzo[d]imidazol-5-yl)oxy)phenyl)amino)pyrimido[5,4-d]pyrimidin-2-yl)-3-methylpiperidin-3-ol]	0.0326	≥ 5	0.0742	0.0455	2.7	2.65	1	–
Cc1cc(Nc2ncnc3cnc(N4CC[C@@H](C(C)(C)O)C4)nc23)ccc1Oc1ccn2ncnc2c1 [Example 124, (R)-2-(1-(8-((4-([1,2,4]triazolo[1,5-a]pyridin-7-yloxy)-3-methylphenyl)amino)pyrimido[5,4-d]pyrimidin-2-yl)pyrrolidin-3-yl)propan-2-ol]	0.0648	≥ 5	0.016	0.0143	10.3	2.75	1.4	–
